Laboratory results as given in PubChem BioAssay (NCI).
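In this assay, cells in 96-well plates receive the compound at five concentrations for 48 hours. Endpoints are linearly interpolated between the surrounding concentrations. Here, GI50 denotes the concentration required for 50% inhibition of growth. TGI: concentration producing complete growth inhibition.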

How the values were obtained:
Test in all cases: NCI tumour cell line growth inhibition, 48 h
786-0 renal = system: 786-0 renal
COLO 205 colon = system: COLO 205 colon
U251 CNS = system: U251 CNS
HCT-15 colon = system: HCT-15 colon
UO-31 renal = system: UO-31 renal
SN12C renal = system: SN12C renal
LOX IMVI melanoma = system: LOX IMVI melanoma
MOLT-4 leukemia = system: MOLT-4 leukemia
OVCAR-3 ovarian = system: OVCAR-3 ovarian
KM12 colon = system: KM12 colon

SMILES | TGI (786-0 renal) [µM] | TGI (COLO 205 colon) [µM] | TGI (U251 CNS) [µM] | TGI (HCT-15 colon) [µM] | TGI (UO-31 renal) [µM] | TGI (SN12C renal) [µM] | TGI (LOX IMVI melanoma) [µM] | TGI (MOLT-4 leukemia) [µM] | TGI (OVCAR-3 ovarian) [µM] | TGI (KM12 colon) [µM] | GI50 (KM12 colon) [µM] | GI50 (786-0 renal) [µM] | GI50 (COLO 205 colon) [µM] | GI50 (U251 CNS) [µM] | GI50 (HCT-15 colon) [µM] | GI50 (UO-31 renal) [µM] | GI50 (SN12C renal) [µM] | GI50 (LOX IMVI melanoma) [µM] | GI50 (OVCAR-3 ovarian) [µM]
Fc1ccc(N=C2C=CC(=Nc3ccc(F)cc3)c3ccccc32)cc1 | > 100 | > 100 | > 100 | > 100 | > 100 | > 100 | > 100 | > 100 | > 100 | – | – | – | – | – | – | – | – | – | –
COc1ccc([C@@H]2OC(=O)C3C2C(=O)O[C@H]3c2ccc(OC)cc2)cc1 (stereo partly drawn) | > 100 | > 100 | > 100 | > 100 | > 100 | > 100 | – | > 100 | > 100 | > 100 | – | – | – | – | – | – | – | – | –
CN(C)CCCCNc1ccc(NCCCCN(C)C)c2c1C(=O)c1c(O)ccc(O)c1C2=O | 3.14 | 28.6 | 3.08 | 2.93 | 2.93 | 25.8 | 2.73 | – | 2.97 | 2.84 | 1.51 | 1.76 | 13.6 | 1.69 | 1.55 | 1.43 | 13.1 | 1.42 | 1.62
CCc1ncc(CO)n1Cc1cccc2ccccc12 | > 100 | > 100 | > 100 | > 100 | > 100 | > 100 | – | – | > 100 | > 100 | – | – | – | – | – | – | – | – | –
N#CCCN(c1ccc(C=O)cc1)S(=O)(=O)c1ccccc1 | > 100 | – | > 100 | > 100 | > 100 | > 100 | > 100 | > 100 | > 100 | > 100 | – | – | – | – | – | – | – | – | –
